ChEMBL document CHEMBL1137318, “Dipyridyl thiosemicarbazone chelators with potent and selective antitumor activity form iron complexes with redox activity” (J Med Chem, 2006)
Calls of active or inactive are those of the source. The calls are words filed in the database; no cut-off is given here.

Legend:
[1] = Inhibition of Fe(3+)-mediated ascorbate oxidation at IBE of 0.1 relative to control; assay type: functional; conditions: dose or concentration not given here
[2] = Inhibition of Fe(3+)-mediated ascorbate oxidation at IBE of 1 relative to control; assay type: functional; conditions: dose or concentration not given here
[3] = Inhibition of Fe(3+)-mediated ascorbate oxidation at IBE of 3 relative to control; assay type: functional; conditions: dose or concentration not given here
[4] = Inhibition of hydroxylation of benzoate in presence of Fe(II) at IBE of 1 relative to control; assay type: functional; conditions: dose or concentration not given here
[5] = Inhibition of hydroxylation of benzoate in presence of Fe(II) at IBE of 3 relative to control; assay type: functional; conditions: dose or concentration not given here
SK-N-MC = experiment: Antiproliferative activity against human SK-N-MC cells after 96 hrs by MTT assay; assay type: functional, cell-based
[6] = Increase in Fe(3+)-mediated ascorbate oxidation at IBE of 0.1 relative to control; assay type: functional
[7] = Increase in Fe(3+)-mediated ascorbate oxidation at IBE of 1 relative to control; assay type: functional
[8] = Increase in Fe(3+)-mediated ascorbate oxidation at IBE of 3 relative to control; assay type: functional
[9] = Increase in Fe(2+)-mediated hydroxyl radical production measured as hydroxylation of benzoate at IBE of 3 relative to control; assay type: functional
Nucleic Acid = experiment: Binding affinity to DNA measured as hypochromicity of UV-vis spectra; assay type: nucleic-acid assay
[10] = Increase in Fe(2+)-mediated hydroxyl radical production measured as hydroxylation of benzoate at IBE of 1 relative to control; assay type: functional

CC(=O)N(O)CCCCCNC(=O)CCC(=O)N(O)CCCCCNC(=O)CCC(=O)N(O)CCCCCN [DEFEROXAMINE] gave an inhibition [1] of 79%, an inhibition [2] of 60% and an inhibition [3] of 59%. It also gave an inhibition [4] of 56%, an inhibition [5] of 56% and an IC50 (SK-N-MC) of 8.58 µM.

For CN(C)C(=S)NN=C(c1ccccn1)c1ccccn1, the Activity [6] was “Active”, the Activity [7] was 439% and the Activity [8] was 406%. For the same compound, the Activity [9] was “Active” and the IC50 (SK-N-MC) was 0.01 µM.

With COc1cccc2c1C(=O)c1c(O)c3c(c(O)c1C2=O)C[C@@](O)(C(=O)CO)C[C@@H]3O[C@H]1C[C@H](N)[C@H](O)[C@H](C)O1 the Activity (Nucleic Acid) was 36%.

Work on O=C(O)CN(CCN(CC(=O)O)CC(=O)O)CC(=O)O yielded an Activity [7] of 475%, an Activity [8] of 482% and an Activity [9] of 343%. The Activity [10] was 309%.
